Data reported in US9770446B2, “Piperidine urea derivatives” (MERCK PATENT GMBH, priority 2013, dated 2017).

What was measured:
[1] = molecular target: T1, GST-tagged Tankyrase-1 (1023-1327 aa) (Homo sapiens, UniProt O95271); assay: Tankyrase 1 autoparsylation HTRF enzyme assay; format: biochemical; conditions: read-out: IC50 TNKS1 enzyme assay
T1 construct: GST-tagged Tankyrase-1 (1023-1327 aa)
Procedure: (§1) Biochemical activity testing of Tankyrase 1 and 2: Autoparsylation assay
(§2) The autoparsylation assay is run in two steps: the enzymatic reaction in which GST-tagged Tankyrase-1, resp Tankyrase-2 transferred biotinylated ADP-ribose to itself from biotinylated NAD as co-substrate and the detection reaction where a time resolved FRET between cryptate labelled anti-GST bound to the GST tag of the enzyme and Xlent® labelled-streptavidin bound the biotin-parsylation residue is analysed. The autoparsylation activity was detectable directly via the increase in HTRF signal.
(§3) The autoparsylation assay is performed as 384-well HTRF® (Cisbio, Codolet, France) assay format in Greiner low volume nb 384-well microtiter plates and is used for high throughput screen. 250 nM GST-tagged Tankyrase-1 (1023-1327 aa), respectively about 250 nM GST-tagged Tankyrase-2 (873-1166 aa) and 5 μM bio-NAD (Biolog, Life science Inst., Bremen, Germany) as co-substrate are incubated in a total volume of 5 μl (50 mM HEPES, 4 mM Mg-chloride, 0.05% Pluronic F-68, 1.4 mM DTT, 0.5% DMSO, pH 7.7) in the absence or presence of the test compound (10 dilution concentrations) for 90 min at 30° C. The reaction is stopped by the addition of 1 μl 50 mM EDTA solution. 2 μl of the detection solution (1.6 μM SA-Xlent® (Cisbio, Codolet, France), 7.4 nM Anti-GST-K® (Eu-labelled anti-GST, Cisbio, Codolet, France) in 50 mM HEPES, 800 mM KF, 0.1% BSA, 20 mM EDTA, 0.1% CHAPS, pH 7.0) are added. After 1 h incubation at room temperature the HTRF is measured with an Envision multimode reader (Perkin Elmer LAS Germany GmbH) at excitation wavelength 340 nm (laser mode) and emission wavelengths 615 nm and 665 nm. The ratio of the emission signals is determined. The full value used is the inhibitor-free reaction. The pharmacological zero value used is XAV-939 (Tocris) in a final concentration of 5 μM. The inhibitory values (IC50) are determined using either the program Symyx Assay Explorer® or Condosseo® from GeneData.

[2] = molecular target: T2, GST-tagged Tankyrase-2 (873-1166 aa) (Homo sapiens, UniProt Q9H2K2); assay: Tankyrase 2 autoparsylation HTRF enzyme assay; format: biochemical; conditions: read-out: IC50 TNKS2 enzyme assay
T2 construct: GST-tagged Tankyrase-2 (873-1166 aa)
Procedure: as §1, §2, §3

Tankyrase = assay: Cellular inhibition of Tankyrase: Axin2 level in DLD1 cells (Luminex); format: cell-based; conditions: 24 hours, Axin2 increase, read-out: EC50 [M] TNKS cellular assay
Procedure: Measurement of Cellular Inhibition of Tankyrase
Since Tankyrases have been described to modulate cellular level of Axin2 (Huang et al., 2009; Nature) the increase of Axin2 level is used as read-out for determination of cellular inhibition of Tankyrases in a Luminex based assay.
Cells of the colon carcinoma cell line DLD1 are plated in 96 well plates with 1.5×10^4 cells per well. Next day, cells are treated with a serial dilution of test compound in seven steps as triplicates with a final DMSO concentration of 0.3%. After 24 hours, cells are lysed in lysis buffer (20 mM Tris/HCl pH 8.0, 150 mM NaCl, 1% NP40, 10% Glycerol) and lysates are cleared by centrifugation through a 96 well filter plate (0.65 μm). Axin2 protein is isolated from cell lysates by incubation with a monoclonal anti-Axin2 antibody (R&D Systems #MAB6078) that is bound to fluorescent carboxybeads. Then, bound Axin2 is specifically detected with a polyclonal anti-Axin2 antibody (Cell Signaling #2151) and an appropriate PE-fluorescent secondary antibody. The amount of isolated Axin2 protein is determined in a Luminex^200 machine (Luminex Corporation) according to the manufacturer's instruction by counting 100 events per well. Inhibition of Tankyrase by test compounds results in higher levels of Axin2 which directly correlates with an increase of detectable fluorescence. As controls cells are treated with solvent alone (neutral control) and with a Tankyrase reference inhibitor IWR-2 (3E-06 M) which refers as control for maximum increase of Axin2. For analysis, the obtained data are normalized against the untreated solvent control and fitted for determination of the EC50 values using the Assay Explorer software (Accelrys).

[3] = molecular target: T3, GST-tagged Tnks-1 (1023-1327 aa) (Homo sapiens, UniProt O95271); assay: TNKS1 activity ELISA (autoparsylation assay); format: biochemical
T3 construct: GST-tagged Tnks-1 (1023-1327 aa, prepared in-house); made in house
Procedure: (§4) Description of the TNKS1 and TNKS2 ELISA Assay
(§5) Biochemical Activity Testing of TNKS 1 and 2: Activity ELISA (Autoparsylation Assay)
(§6) For analysis of autoparsylation activity of TNKS 1 and 2 an activity ELISA iss performed: In the first step GST tagged TNKS is captured on a Glutathione coated plate. Then the activity assay with biotinylated NAD is performed in the absence/presence of the compounds. During the enzymatic reaction GST tagged TNKS transfers biotinylated ADP-ribose to itself from biotinylated NAD as co-substrate. For the detection streptavidin-HRP conjugate is added that binds to the biotinylated TNKS and is thereby captured to the plates. The amount of biotinylated resp. autoparsylated TNKS is detected with a luminescence substrate for HRP. The level of the luminescence signal correlates directly with the amount of autoparsylated TNKS and therefore with activity of TNKS.
(§7) The activity ELISA is performed in 384 well Glutathione coated microtiter plates (Express capture Glutathione coated plate, Biocat, Heidelberg, Germany). The plates are pre-equilibrated with PBS. Then the plates are incubated with 50 μl 20 ng/well GST-tagged Tnks-1 (1023-1327 aa, prepared in-house), respectively GST-tagged Tnks-2 (873-1166 aa, prepared in-house) in assay buffer (50 mM HEPES, 4 mM Mg-chloride, 0.05% Pluronic F-68, 2 mM DTT, pH 7.7) overnight at 4° C. The plates are washed 3 times with PBS-Tween-20. The wells are blocked by incubation at room temperature for 20 minutes with 50 μl blocking buffer (PBS, 0.05% Tween-20, 0.5% BSA). Afterwards the plates are washed 3 times with PBS-Tween-20. The enzymatic reaction is performed in 50 μl reaction solution (50 mM HEPES, 4 mM Mg-chloride, 0.05% Pluronic F-68, 1.4 mM DTT, 0.5% DMSO, pH 7.7) with 10 μM bio-NAD (Biolog, Life science Inst., Bremen, Germany) as co-substrate in the absence or presence of the test compound (10 dilution concentrations) for 1 hour at 30° C. The reaction is stopped by 3 times washing with PBS-Tween20. For the detection 50 μl of 20 ng/μl Streptavidin, HRP conjugate (MoBiTec, Göttingen, Germany) in PBS/0.05% Tween-20/0.01% BSA are added and the plates are incubated for 30 minutes at room temperature. After three times washing with PBS-Tween-20 50 μl of SuperSignal ELISA Femto Maximum sensitivity substrate solution (ThermoFisherScientific (Pierce), Bonn, Germany) are added. Following a 1 minute incubation at room temperature luminescence signals are measured with an Envision multimode reader (Perkin Elmer LAS Germany GmbH) at 700 nm. The full value used is the inhibitor-free reaction. The pharmacological zero value used is XAV-939 (Tocris) in a final concentration of 5 μM. The inhibitory values (IC50) are determined using either the program Symyx Assay Explorer® or Condosseo® from GeneData.

[4] = molecular target: T4, GST-tagged Tnks-2 (873-1166 aa) (Homo sapiens, UniProt Q9H2K2); assay: TNKS2 activity ELISA (autoparsylation assay); format: biochemical
T4 construct: GST-tagged Tnks-2 (873-1166 aa, prepared in-house); made in house
Procedure: as §4, §5, §6, §7

T2 sequence (Q9H2K2 873-1166): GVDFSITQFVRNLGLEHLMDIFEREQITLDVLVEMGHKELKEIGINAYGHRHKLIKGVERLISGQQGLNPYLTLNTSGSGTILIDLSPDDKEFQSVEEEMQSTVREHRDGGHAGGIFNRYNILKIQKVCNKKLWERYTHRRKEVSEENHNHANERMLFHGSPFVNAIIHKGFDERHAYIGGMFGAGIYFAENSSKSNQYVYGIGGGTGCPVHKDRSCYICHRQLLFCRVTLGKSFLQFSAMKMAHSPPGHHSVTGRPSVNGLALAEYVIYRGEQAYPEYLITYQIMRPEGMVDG
T4 sequence (Q9H2K2 873-1166): as above
T1 sequence (O95271 1023-1327): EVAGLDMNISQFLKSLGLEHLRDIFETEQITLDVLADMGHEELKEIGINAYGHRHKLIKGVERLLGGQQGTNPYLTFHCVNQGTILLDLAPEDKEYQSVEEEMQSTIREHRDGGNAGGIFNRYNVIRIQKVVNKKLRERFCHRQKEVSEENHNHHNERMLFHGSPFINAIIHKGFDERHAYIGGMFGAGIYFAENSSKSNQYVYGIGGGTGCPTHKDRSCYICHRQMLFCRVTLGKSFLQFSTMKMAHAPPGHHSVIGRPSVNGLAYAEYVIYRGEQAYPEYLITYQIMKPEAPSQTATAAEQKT
T3 sequence (O95271 1023-1327): as above

O=C(c1ccccc1)C1CCN(C(=O)N2CCCc3ccccc32)CC1 [Compound A22, (4-benzoyl-piperidin-1-yl)-(3,4-dihydro-2H-quinolin-1-yl)-methanone]
IC50 [1]: 3 to 50 µM
IC50 [2]: 3 to 50 µM
EC50 (Tankyrase): 3e-06 to 5e-05 M
IC50 [3]: 0.3 to 3 µM
IC50 [4]: 0.3 to 3 µM

COc1ccc(N(C)C(=O)N2CCC(C(=O)c3ccc(OC)c(C)c3)CC2)cc1 [Compound A23, 4-(4-methoxy-3-methyl-benzoyl)-piperidine-1-carboxylic acid (4-methoxy-phenyl)-methyl-amide]
IC50 [1]: < 0.3 µM
IC50 [2]: 0.3 to 3 µM
EC50 (Tankyrase): < 3e-07 M
IC50 [3]: < 0.3 µM
IC50 [4]: < 0.3 µM

COc1ccc(N(C)C(=O)N2CCC(C(=O)c3ccc(OC)c(F)c3)CC2)cn1 [Compound A42, 4-(3-fluoro-4-methoxy-benzoyl)-N-(6-methoxy-3-pyridyl)-N-methyl-piperidine-1-carboxamide]
IC50 [1]: < 0.3 µM
IC50 [2]: 0.3 to 3 µM
EC50 (Tankyrase): < 3e-07 M
IC50 [3]: < 0.3 µM
IC50 [4]: < 0.3 µM

COc1ccc(N(C)C(=O)N2CCC(C(=O)c3cccc(C)c3)CC2)cn1 [Compound A45, N-(6-methoxy-3-pyridyl)-N-methyl-4-(3-methylbenzoyl)piperidine-1-carboxamide]
IC50 [1]: 0.3 to 3 µM
IC50 [2]: 0.3 to 3 µM
EC50 (Tankyrase): < 3e-07 M
IC50 [3]: < 0.3 µM
IC50 [4]: < 0.3 µM

COc1ccc(N(C)C(=O)N2CCC(C(=O)c3ccc(C)cc3)CC2)cn1 [Compound A46, N-(6-methoxy-3-pyridyl)-N-methyl-4-(4-methylbenzoyl)piperidine-1-carboxamide]
IC50 [1]: 0.3 to 3 µM
IC50 [2]: 0.3 to 3 µM
EC50 (Tankyrase): 3e-07 to 3e-06 M
IC50 [3]: < 0.3 µM
IC50 [4]: < 0.3 µM

COc1cccc(C(=O)C2CCN(C(=O)N(C)c3ccc(OC)nc3)CC2)c1 [Compound A47, 4-(3-methoxybenzoyl)-N-(6-methoxy-3-pyridyl)-N-methyl-piperidine-1-carboxamide]
IC50 [1]: 0.3 to 3 µM
IC50 [2]: 0.3 to 3 µM
EC50 (Tankyrase): 3e-07 to 3e-06 M
IC50 [3]: < 0.3 µM
IC50 [4]: < 0.3 µM

COc1ccc(C(=O)C2CCN(C(=O)N(C)c3ccc(OC)nc3)CC2)cc1 [Compound A49, 4-(4-methoxybenzoyl)-N-(6-methoxy-3-pyridyl)-N-methyl-piperidine-1-carboxamide]
IC50 [1]: < 0.3 µM
IC50 [2]: 0.3 to 3 µM
EC50 (Tankyrase): < 3e-07 M
IC50 [3]: < 0.3 µM
IC50 [4]: < 0.3 µM

COc1ccc(N(C)C(=O)N2CCC(C(=O)c3cccc(F)c3)CC2)cn1 [Compound A50, 4-(3-fluorobenzoyl)-N-(6-methoxy-3-pyridyl)-N-methyl-piperidine-1-carboxamide]
IC50 [1]: 0.3 to 3 µM
IC50 [2]: 0.3 to 3 µM
EC50 (Tankyrase): 3e-07 to 3e-06 M
IC50 [3]: < 0.3 µM
IC50 [4]: < 0.3 µM

COc1ccc(N(C)C(=O)N2CCC(C(=O)c3ccc(F)cc3)CC2)cn1 [Compound A51, 4-(4-fluorobenzoyl)-N-(6-methoxy-3-pyridyl)-N-methyl-piperidine-1-carboxamide]
IC50 [1]: 0.3 to 3 µM
IC50 [2]: 0.3 to 3 µM
EC50 (Tankyrase): 3e-07 to 3e-06 M
IC50 [3]: < 0.3 µM
IC50 [4]: < 0.3 µM
